For series [1], the system named is Mus musculus. Conditions: subchronic; oral; drinking water; M/F; clinical serum chemistry (effects on erythrocytes and reduced humoral immune status).
Series [2] has as its system Mus musculus. The note with it: subchronic; duration: 90 days; oral; drinking water; M/F; CD1; Hepatic, Other.
Series [3] has as its system Rattus norvegicus. The note with it: for NOAEL: oral, gavage, Sprague-Dawley.
Series [4] deals with Mus musculus. The note with it: subchronic; duration: 90 days; oral; drinking water; M/F; CD1; immunological, hepatic.
For series [5], the system named is Monkey. The note with it: chronic; duration: 6 months; oral; diet; Thyroid: Increased weight.
Series [6] has as its system Monkey. The note with it: chronic; duration: 6 months; oral; diet; M/F; increased thyroid weight.
The subject of series [7] is Rattus norvegicus. The note with it: for NOAEL / LOAEL: inhalation.
Series [8] deals with Canidae. Conditions: acute; duration: 10 minutes; inhalation; unknown; Dog Other; Whole Body: Seizures.
Series [9] relates to Rattus norvegicus. Conditions: reproduction developmental, oral, gavage, Sprague-Dawley.
Series [10] has as its system Cavia porcellus. Conditions: acute; oral; Guinea Pig.
In series [11] the test system is Rattus norvegicus. The experiment in a line: LC0; higher = less toxic. The note with it: acute; oral; Sprague-Dawley.
The subject of series [12] is Rattus norvegicus. Conditions: Hershberger, oral, gavage, Sprague-Dawley, active + Antiandrogenic + anti-androgenic + PPS delayed.
Series [13] concerns Rattus norvegicus. Conditions: subchronic, oral, diet, Fischer 344, Body Weight Changes: decrease + Food Consumption: decrease + Hematology: Hct decrease, Hgb decrease, RBC decrease, N-RBC increase, MCV ….
For series [14], the system named is Rattus norvegicus. Conditions: chronic; duration: 52 weeks; oral; diet; Whole body: Increased mortality.
Series [15] relates to Rattus norvegicus. The note with it: subchronic; oral; M; mortality.
For series [16], the system named is Mus musculus. Conditions: repeat dose other; oral.
Series [17] relates to Chalcophaps sp. The note with it: oral.
[18] abbreviates: reproduction developmental, duration: 9 days, F, Crl:CD(SD), generation: P0, P0: Skin: Stained Fur + P0: Whole Body: Body Weight Change + P0: Whole Body: Convulsions + P0: Whole Body: Feed Consumption, Absolute.
[19] abbreviates: reproduction developmental, duration: 9 days, M/F, Crl:CD(SD), generation: F1, F1: Whole Body: Pup Weight Relative to Litter.
The mark [20] stands for this setting: reproduction developmental, duration: 107 days, M, Crj:CD, generation: P0, P0: Whole Body: Clonic Seizures + P0: Whole Body: Mortality.
Where [21] appears, read: reproduction developmental, duration: 121 days, F, Crl:CD(SD), generation: P0, P0: Liver: Liver Weight, Absolute + P0: Liver: Liver Weight, Relative + P0: Pituitary: Pituitary Gland Weight, Absolute + P0: Pituitary: ….
Where [22] appears, read: subchronic, duration: 90 days, F, Crl:CD(SD) BR, Blood: Albumin (A) + Renal: Urine Osmolality + Renal: Urine Volume (UVOL) + Whole Body: Motor Activity.
[23] abbreviates: subchronic, duration: 90 days, F, Crl:CD(SD) BR, Central Nervous System: Abnormal Behavior.
The mark [24] stands for this setting: subchronic, duration: 90 days, M, Crl:CD(SD) BR, Blood: Albumin (A) + Whole Body: Motor Activity.
Setting [25] is: subchronic, duration: 90 days, M, Crl:CD(SD) BR, Central Nervous System: Abnormal Behavior.
[26] abbreviates: developmental, oral, gavage, M, Crl:CD(SD), generation: F1, F1: AGD (mm).

Broadly, the LOAEL is the lowest tested level that showed an adverse finding. Broadly, the NOAEL is the highest tested level that showed no adverse finding. With `ClCC(Cl)Cl` [1,1,2-Trichloroethane], the LOAEL was determined as 44 mg/kg-day in series [1] and 316 mg/m3 in series [3] (acute, duration: 4 hours, inhalation, whole body, M/F, Fischer 344, respiratory). In addition, the NOAEL in [1] was 3.9 mg/kg-day; in series [2] it was 3.9 mg/kg-day; in series [3] (acute, duration: 1 days, M, hepatic), 46 mg/kg-day; in series [4] it was 3.9 mg/kg-day.
For `S=C([S-])NCCNC(=S)[S-].[Mn+2]` [Maneb], the NOEL in [5] and in series [6] was 5 mg/kg-day in each case. Besides, the LEL in [6] stood at 15 mg/kg-day.
As to `FC(C(F)C(F)(F)C(F)(F)F)C(F)(F)F` (stereo not drawn) [2H,3H-Decafluoropentane], the NOAEL was 35800 mg/m3 in series [7] (reproduction developmental, duration: 9 days, F, Crl:CD(SD), generation: P0, P0: Ovary: Corpora Lutea + P0: Uterus: Implantation + P0: Uterus: Uterine Weight, Gravid); 5170 mg/m3 in [7] (setting [18]); 35800 mg/m3 in series [7] (reproduction developmental, duration: 9 days, M/F, Crl:CD(SD), generation: F1, F1: Multi-Organ: Soft Tissue Examinations + F1: Skeleton: Skeletal Examinations + F1: Uterus: Resorptions, Early + F1: Uterus: Resorptions, …); 20000 mg/m3 in [7] (setting [19]); 36100 mg/m3 in [7] (reproduction developmental, duration: 107 days, M, Crj:CD, generation: P0, P0: Liver: Liver Weight, Absolute + P0: Liver: Liver Weight, Relative + P0: Pituitary: Pituitary Gland Weight, Absolute + P0: Pituitary: …); 20600 mg/m3 in series [7] (setting [20]). Besides, the NOAEL worked out at 20600 mg/m3 in [7] (setting [21]); 36100 mg/m3 in [7] (reproduction developmental, duration: 121 days, F, Crl:CD(SD), generation: P0, P0: Uterus: Implantation + P0: Whole Body: Fertility Index + P0: Whole Body: Maternal Body Weight + P0: Whole Body: Maternal Body Weight …); 36100 mg/m3 in series [7] (reproduction developmental, duration: 121 days, M/F, Crl:CD(SD), generation: F1, F1: Whole Body: Necropsy Appeared Normal + F1: Whole Body: Pup Weight Relative to Litter + F1: Whole Body: Survival + F1: Whole Body: …); 36100 mg/m3 in series [7] (subchronic, duration: 90 days, F, Crl:CD(SD) BR, Adrenal: Adrenal Gland Histopathology + Adrenal: Adrenal Gland Weight, Absolute + Adrenal: Adrenal Gland Weight, Relative + Brain: Brain …); 20600 mg/m3 in series [7] (setting [22]); 5150 mg/m3 in series [7] (setting [23]). The NOAEL worked out at 36100 mg/m3 in series [7] (subchronic, duration: 90 days, M, Crl:CD(SD) BR, Adrenal: Adrenal Gland Histopathology + Adrenal: Adrenal Gland Weight, Absolute + Adrenal: Adrenal Gland Weight, Relative + Brain: Brain …); 20600 mg/m3 in series [7] (setting [24]); 5150 mg/m3 in series [7] (setting [25]); 51500 mg/m3 in series [8]. Further, the LOAEL in series [7] (setting [18]) is 20000 mg/m3; in [7] (setting [19]), 35800 mg/m3; in [7] (setting [20]) it was 36100 mg/m3; in series [7] (setting [21]), 36100 mg/m3; in series [7] (setting [22]) it was 36100 mg/m3; in [7] (setting [23]) it was 20600 mg/m3. Further, the figures for the LOAEL in series [7] (setting [24]), in [7] (setting [25]) and in series [8] were 36100 mg/m3, 20600 mg/m3 and 103000 mg/m3, respectively.
The term LD50 denotes the dose expected to kill half of the subjects tested. In the case of `Nc1ccc(C=Cc2ccc(N)cc2S(=O)(=O)O)c(S(=O)(=O)O)c1` [4,4'-Diamino-2,2'-stilbenedisulfonic acid], the NOAEL in series [9] (generation: F0) and in series [9] (generation: F1) was 1000 mg/kg-day each time. In series [10], this compound had an LD50 of 47000 mg/kg. Besides, in [11], the LC0 came out at 3000 mg/kg.
As for `CCCCOC(=O)c1ccccc1C(=O)OCCCC` [Dibutyl 1,2-benzenedicarboxylate], the NOEL in series [12] (duration: 5 days) is 500 mg/kg-day; in [12] (duration: 10 days), 500 mg/kg-day; in series [7] (developmental, oral, M, Albino, generation: F1, F1: AGD (units not specified)), 50 mg/kg-day; in series [7] (setting [26]) it was 100 mg/kg-day; in series [13] (F), 177 mg/kg-day; in series [13] (M/F), below 240 mg/kg-day. Also, the LOEL in series [7] (setting [26]) was found to be 500 mg/kg-day. Also, the NOAEL is 125 mg/kg-day in series [14]; 125 mg/kg-day in series [15]; 550 mg/kg-day in series [16]; 0.11 mg/kg-day in series [17]; 50 mg/kg-day in series [3] (developmental, duration: 9 days, M/F, developmental). The LOAEL was found to be 600 mg/kg-day in [15], 1830 mg/kg-day in [16] and 1.1 mg/kg-day in [17].

The values are drawn from EPA's ToxValDB 9.5.
